Test results taken from patent publication US20180155344A1, “TRICYCLIC PIPERIDINE COMPOUNDS” (ACTELION PHARMACEUTICALS LTD, priority 2015, published 2018).

Experiments:
cholangiocarcinoma = details: xenograft model of cholangiocarcinoma; cited from earlier work
5HT [1] = details: 200 mg/kg i.p. qid for 3 days, cited from earlier work
human TPH1 = biological target: T1, human TPH1 (Homo sapiens, UniProt P17752); assay: biochemical
T1 sequence (P17752 1-444): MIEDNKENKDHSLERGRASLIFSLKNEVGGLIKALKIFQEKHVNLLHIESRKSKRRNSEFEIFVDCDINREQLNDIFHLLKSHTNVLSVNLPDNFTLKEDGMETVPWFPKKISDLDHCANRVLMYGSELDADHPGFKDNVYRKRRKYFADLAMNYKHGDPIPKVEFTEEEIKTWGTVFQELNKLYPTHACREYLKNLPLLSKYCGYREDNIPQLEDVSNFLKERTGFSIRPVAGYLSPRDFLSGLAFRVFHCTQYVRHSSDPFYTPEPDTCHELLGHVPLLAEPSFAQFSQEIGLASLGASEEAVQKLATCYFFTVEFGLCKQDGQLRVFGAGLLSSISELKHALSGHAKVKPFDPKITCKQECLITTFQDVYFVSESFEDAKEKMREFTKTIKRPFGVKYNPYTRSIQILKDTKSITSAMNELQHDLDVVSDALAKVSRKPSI
Outline: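 Inhibition is derived from 5-hydroxy-L-tryptophan fluorescence (540 nm emission, 300 nm excitation) after perchloric acid stop, relative to DMSO vehicle. Recombinant full-length human enzyme (40-80 nM) reacts with 40 μM tryptophan plus 100 μM methyltetrahydropterin, pH 7.6 Tris/DTT/catalase, 15° C, 60 min.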

5HT [2] = details: mice, cited from earlier work
5HT [3] = details: phase IIA study, qid; cited from earlier work
5HT [4] = details: cited from earlier work

SMILES | IC50 (human TPH1) [nM] | further results
N[C@@H](Cc1ccc(Cl)cc1)C(=O)O (racemic) [PCA, p-chlorophenylalanine] |  | tumor volume (cholangiocarcinoma): dramatic reduction in tumor volume; 5HT in the brain (5HT [1]; brain): ~20 % original; 5HT in the gut (5HT [1]; gut): ~50 % original
O=C(COc1ccc(N2CCOCC2)nc1Cl)N1CCc2nc3cccnn3c2C1c1ccc(C2CC2)cc1F (centres unmarked) [Example 16.1.2, 2-((2-chloro-6-morpholinopyridin-3-yl)oxy)-1-(9-(4-cyclopropyl-2-fluorophenyl)-6,9-dihydropyrido[4′,3′:4,5]imidazo[1,2-b]pyridazin-8(7H)-yl)ethan-1-one] | 8 | 
O=C(COc1ccc(N2CCOCC2)nc1Cl)N1CCc2nc3cccnn3c2C1c1ncc(C2CC2)cc1F (centres unmarked) [Example 16.2.1, 2-((2-chloro-6-morpholinopyridin-3-yl)oxy)-1-(9-(5-cyclopropyl-3-fluoropyridin-2-yl)-6,9-dihydropyrido[4′,3′:4,5]imidazo[1,2-b]pyridazin-8(7H)-yl)ethan-1-one] | 14 | 
CCc1nc(C)ccc1OCC(=O)N1CCc2nc3cccnn3c2C1c1ncc(C2CC2)cc1F (centres unmarked) [Example 16.2.2, 1-(9-(5-cyclopropyl-3-fluoropyridin-2-yl)-6,9-dihydropyrido[4′,3′:4,5]imidazo[1,2-b]pyridazin-8(7H)-yl)-2-((2-ethyl-6-methylpyridin-3-yl)oxy)ethan-1-one] | 128 | 
O=C(COc1cccnc1C(F)(F)F)N1CCc2nc3cccnn3c2C1c1ncc(C2CC2)cc1F (centres unmarked) [Example 16.2.3, 1-(9-(5-cyclopropyl-3-fluoropyridin-2-yl)-6,9-dihydropyrido[4′,3′:4,5]imidazo[1,2-b]pyridazin-8(7H)-yl)-2-((2-(trifluoromethyl)pyridin-3-yl)oxy)ethan-1-one] | 144 | 
O=C(COc1ccc(C(F)(F)F)cc1Cl)N1CCc2nc3cccnn3c2C1c1ncc(C2CC2)cc1F (centres unmarked) [Example 16.2.5, 2-(2-chloro-4-(trifluoromethyl)phenoxy)-1-(9-(5-cyclopropyl-3-fluoropyridin-2-yl)-6,9-dihydropyrido[4′,3′:4,5]imidazo[1,2-b]pyridazin-8(7H)-yl)ethan-1-one] | 238 | 
O=C(COc1ccc(C(F)(F)F)nc1Cl)N1CCc2nc3cccnn3c2C1c1ncc(C2CC2)cc1F (centres unmarked) [Example 16.2.6, 2-((2-chloro-6-(trifluoromethyl)pyridin-3-yl)oxy)-1-(9-(5-cyclopropyl-3-fluoropyridin-2-yl)-6,9-dihydropyrido[4′,3′:4,5]imidazo[1,2-b]pyridazin-8(7H)-yl)ethan-1-one] | 290 | 
CN(C)C(=O)c1csc(C2c3c(nc4cccnn34)CCN2C(=O)COc2ccc(N3CCOCC3)nc2Cl)c1 (centres unmarked) [Example 16.3.1, 5-(8-(2-((2-Chloro-6-morpholinopyridin-3-yl)oxy)acetyl)-6,7,8,9-tetrahydropyrido[4′,3′:4,5]imidazo[1,2-b]pyridazin-9-yl)-N,N-dimethylthiophene-3-carboxamide] | 43 | 
CS(=O)(=O)Nc1ccc(OCC(=O)N2CCc3nc4cccnn4c3C2c2ccc(Cl)cc2F)c(Cl)n1 (centres unmarked) [Example 16.4.1, N-(6-chloro-5-(2-(9-(4-chloro-2-fluorophenyl)-6,9-dihydropyrido[4′,3′:4,5]imidazo[1,2-b]pyridazin-8(7H)-yl)-2-oxoethoxy)pyridin-2-yl)methanesulfonamide] | 167 | 
CCc1nc(NS(C)(=O)=O)ccc1OCC(=O)N1CCc2nc3cccnn3c2C1c1sc(C)nc1C (centres unmarked) [Example 16.5.1, N-(5-(2-(9-(2,4-dimethylthiazol-5-yl)-6,9-dihydropyrido[4′,3′:4,5]imidazo[1,2-b]pyridazin-8(7H)-yl)-2-oxoethoxy)-6-ethylpyridin-2-yl)methanesulfonamide] | 31 | 
O=C(COc1ccc(N2CCOCC2)nc1Cl)N1CCc2nc3cnccn3c2C1c1ccc(C2CC2)cc1F (centres unmarked) [Example 17.1.1, 2-((2-chloro-6-morpholinopyridin-3-yl)oxy)-1-(1-(4-cyclopropyl-2-fluorophenyl)-3,4-dihydropyrido[4′,3′:4,5]imidazo[1,2-a]pyrazin-2(1H)-yl)ethan-1-one] | 29 | 
CS(=O)(=O)Nc1ccc(OCC(=O)N2CCc3nc4cnccn4c3C2c2ccc(Cl)cc2F)c(Cl)n1 (centres unmarked) [Example 17.2.1, N-(6-chloro-5-(2-(1-(4-chloro-2-fluorophenyl)-3,4-dihydropyrido[4′,3′:4,5]imidazo[1,2-a]pyrazin-2(1H)-yl)-2-oxoethoxy)pyridin-2-yl)methanesulfonamide] | 214 | 
CCc1nc(NS(C)(=O)=O)ccc1OCC(=O)N1CCc2nc3cnccn3c2C1c1sc(C)nc1C (centres unmarked) [Example 17.3.1, N-(5-(2-(1-(2,4-dimethylthiazol-5-yl)-3,4-dihydropyrido[4′,3′:4,5]imidazo[1,2-a]pyrazin-2(1H)-yl)-2-oxoethoxy)-6-ethylpyridin-2-yl)methanesulfonamide] | 461 | 
O=C(COc1ccc(N2CCOCC2)nc1Cl)N1CCc2nc3ncccn3c2C1c1ccc(C2CC2)cc1F (centres unmarked) [Example 18.1.1, 2-((2-chloro-6-morpholinopyridin-3-yl)oxy)-1-(6-(4-cyclopropyl-2-fluorophenyl)-8,9-dihydropyrido[4′,3′:4,5]imidazo[1,2-a]pyrimidin-7(6H)-yl)ethan-1-one] | 56 | 
Nc1nc(OC(c2ccc(-c3cccc(F)c3)cc2)C(F)(F)F)cc(-c2ccc(C[C@H](N)C(=O)O)cc2)n1 (some centres unmarked) [LP533401] |  | brain 5HT concentrations (5HT [2]; brain): without effecting brain concentrations; gut 5HT (5HT [2]; gut): lower gut 5HT
COc1cccc(-c2ccc([C@@H](Oc3cc(-c4ccc(C[C@H](N)C(=O)O)cc4)nc(N)n3)C(F)(F)F)cc2)c1 [LX1031, (S)-2-Amino-3-(4-{2-amino-6-[(R)-2,2,2-trifluoro-1-(3′-methoxy-biphenyl-4-yl)-ethoxy]-pyrimidin-4-yl}-phenyl)-propionic acid] |  | blood 5HT (5HT [3]): did not affect blood 5HT; urinary 5HIAA reduction (5HT [3]): up to 30%; brain 5HT (5HT [4]; brain): no effect on brain 5HT; 5HT in the colon (5HT [4]; colon): only a minor reduction; 5HT in the jejunum (5HT [4]; jejunum): lowers 5HT in the jejunum
